US8927577B2, “Quinolinyl glucagon receptor modulators” (Pfizer Inc., priority 2011, dated 2015)

How the values were obtained:
human glucagon receptor [1] = biological target: T1, human glucagon receptor (Homo sapiens (Human), UniProt P47871); assay: Glucagon cAMP Assay; type: cell-based; settings: CHOK1 cells stably transfected with the human glucagon receptor; 100 pM glucagon challenge; Kb from IC50 by modified Cheng-Prusoff equation
Procedure: The Cisbio cAMP detection assay is used to determine the ability of punitive glucagon antagonist to block glucagon induced cAMP production. Potential glucagon antagonists are re-suspended and diluted in 100% DMSO. Prior to use in the Glucagon cAMP assay 100×DMSO compound stocks are diluted 20× with DMEM-F12 media (Invitogen) containing either 0.1% or 4% BSA. 2 uls of 5× compound stocks are spotted into the appropriate wells of low binding white solid bottom 384 well plates (Corning). 2 uls of 5% DMSO or known glucagon antagonist are added to each plate to define the assay window. CHOK1 cells stably transfected with the human glucagon receptor are removed from culture flasks with cell dissociation buffer. Cell pellets are re-suspended, at a concentration of 8.3e^5 cells/ml in DMEM-F12 with or without 4% BSA and 200 uM IBMX. 6 uls of cell suspensions are added to the assay plates. Plates are incubated for 20 min at room temperature prior to the addition of a 100 pM challenge dose of glucagon. On a separate plate glucagon dose response curves are run to determine the EC50 of glucagon. After a 30 min room temperature incubation the reaction is terminated by the addition of lysis buffer containing the cAMP detection reagents. Plates are incubated for an additional 60 min at room temperature prior to being read on the Perkin Elmer fluorescent plate reader. Raw is converted to nM of cAMP produced based on a cAMP standard curve. Converted data is then analyzed using the Pfizer data analysis program. IC50 values are determined from the generated sigmoidal dose response curves. Kb values are the calculated using a modified Cheng-Prusoff equation.

human glucagon receptor [2] = biological target: T1, human glucagon receptor; assay: Human Glucagon SPA Assay; settings: membrane from chem-1 cells stably transfected with the human glucagon receptor; 125 pM [125I]Glucagon-Cex; Ki by Cheng-Prusoff equation; read-out: Binding Ki
Procedure: The Glucagon SPA assay is used to determine the ability of test compounds to block the binding of glucagon-cex to the glucagon receptor. Test compounds are re-suspended and serially diluted in 100% DMSO. 1 ul of test compound at the desired concentrations is spotted into the appropriate wells of 96 well low binding white clear bottom plate (Corning). 1 ul of DMSO is spotted into total binding wells. 1 ul of a known glucagon antagonist at a concentration of 20 uM is added to non specific binding wells. […] All assay ingredients with the exception of test compounds are re-suspended in the following buffer; 50 mM Hepes pH 7.4; 5 mM MgCl2; 1 mM CaCl; 5% glycerol and 0.2% BSA. Following a 6-10 hr incubation at room temperature the amount of hot ligand bound to the cell membranes is determined by reading the plates on a Wallac Trilux radioactive emission detector. Data is analyzed using Pfizer's Data analysis program. IC50 values are then determined from the generated sigmoidal dose response curves. Ki values are calculated using Cheng-Prusoff equation.

T1 sequence (P47871 26-477): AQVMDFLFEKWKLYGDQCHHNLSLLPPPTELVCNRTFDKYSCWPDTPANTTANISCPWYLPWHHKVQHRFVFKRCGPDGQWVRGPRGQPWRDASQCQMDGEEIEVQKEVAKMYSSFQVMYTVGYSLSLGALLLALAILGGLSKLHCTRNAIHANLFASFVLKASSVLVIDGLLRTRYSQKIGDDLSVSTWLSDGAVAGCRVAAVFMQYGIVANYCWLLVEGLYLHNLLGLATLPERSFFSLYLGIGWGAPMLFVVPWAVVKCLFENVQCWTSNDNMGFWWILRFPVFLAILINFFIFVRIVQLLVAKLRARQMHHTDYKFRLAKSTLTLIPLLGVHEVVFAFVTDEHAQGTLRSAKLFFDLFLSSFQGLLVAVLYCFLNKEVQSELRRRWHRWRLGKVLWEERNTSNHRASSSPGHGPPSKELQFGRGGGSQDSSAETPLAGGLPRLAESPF

Row | SMILES | Kb (human glucagon receptor [1]) [nM] | Ki (human glucagon receptor [2]) [nM]
1 | Cc1cc(NC(CC(C)C)c2ccc(C(=O)NCCC(=O)O)cc2)nc2cc(F)ccc12 (racemic) [Example 12, (+/−)-3-{4-[1-(7-fluoro-4-methyl-quinolin-2-ylamino)-3-methyl-butyl]-benzoylamino}-propionic acid] | 310 | 242
2 | Cc1c(NC(CC(C)C)c2ccc(C(=O)NCCC(=O)O)cc2)cnc2ccccc12 (stereo not shown) [Example 18, (+\−)-3-(4-(3-methyl-1-(4-methylquinolin-3-ylamino)butyl)benzamido)propanoic acid] | 100 | 109
3 | Cc1cc2cc(F)ccc2nc1NC(c1ccc(C(=O)NCCC(=O)O)cc1)C1CC(C)(C)C1 (single isomer, unassigned; isomer 2) [Example 35, 3-{4-[(3,3-dimethyl-cyclobutyl)-(6-fluoro-3-methyl-quinolin-2-ylamino)-methyl]-benzoylamino}-propionic acid, isomer 2] | 33 | 14
4 | Cc1cc2ccc(F)cc2nc1NC(c1ccc(C(=O)NCCC(=O)O)cc1)C1CC(C)(C)C1 (racemic) [Example 21, (+/−)-3-{4-[(3,3-dimethyl-cyclobutyl)-(7-fluoro-3-methyl-quinolin-2-ylamino)-methyl]-benzoylamino}-propionic acid] | 160 | 133
5 | CC(C)CC(Nc1ccc2cccc(Cl)c2n1)c1ccc(C(=O)NCCC(=O)O)cc1 (racemic) [Example 13, (+/−)-3-{4-[1-(8-chloro-quinolin-2-ylamino)-3-methyl-butyl]-benzoylamino}-propionic acid] | 140 | 199
6 | CCC[C@@H](Nc1nc2ccccc2cc1C)c1ccc(C(=O)NCCC(=O)O)cc1 [Example 1, (+)-3-(4-(1-((3-Methylquinolin-2-yl)amino)butyl)benzamido)propanoic acid] | 110 | 173
7 | Cc1nc2ccccc2cc1NC(CC(C)C)c1ccc(C(=O)NCCC(=O)O)cc1 (stereo not shown) [Example 17, (+\−)-3-(4-(3-methyl-1-(2-methylquinolin-3-ylamino)butyl)benzamido)propanoic acid] | 880 | 360
8 | CC(C)CC(Nc1ccc2cc(C(F)(F)F)ccc2n1)c1ccc(C(=O)NCCC(=O)O)cc1 (racemic) [Example 16, (+/−)3-(4-(3-methyl-1-(6-(trifluoromethyl)quinolin-2-ylamino)butyl)benzamido)propanoic acid] | 800 | 91
9 | Cc1cc2ccccc2nc1NC(CC(C)C)c1ccc(C(=O)NCCC(=O)O)cc1 (single isomer, unassigned; isomer 1) [Example 30, 3-(4-(3-methyl-1-((3-methylquinolin-2-yl)amino)butyl)benzamido)propanoic acid, Isomer 1] | 69 | 76
10 | Cc1cc2ccccc2nc1NC(CC(C)C)c1ccc(C(=O)NCCC(=O)O)cc1 (single isomer, unassigned; isomer 2) [Example 31, 3-(4-(3-methyl-1-((3-methylquinolin-2-yl)amino)butyl)benzamido)propanoic acid, Isomer 2] | 1300 | 1240
11 | CC(C)CC(Nc1ncc2ccccc2n1)c1ccc(C(=O)NCCC(=O)O)cc1 (racemic) [Example 14, (+/−)-3-{4-[3-methyl-1-(quinazolin-2-ylamino)-butyl]-benzoylamino}-propionic acid] | 3100 | 
12 | CC(C)CC(Nc1ccc2ccccc2n1)c1ccc(C(=O)NCCC(=O)O)cc1 (racemic) [Example 5, (+/−)-3-{4-[3-methyl-1-(quinolin-2-ylamino)-butyl]-benzoylamino}-propionic acid] | 380 | 452
13 | Cc1cc2cc(F)ccc2nc1NC(c1ccc(C(=O)NCCC(=O)O)cc1)C1CC(C)(C)C1 (racemic) [Example 20, (+/−)-3-{4-[(3,3-dimethyl-cyclobutyl)-(6-fluoro-3-methyl-quinolin-2-ylamino)-methyl]-benzoylamino}-propionic acid] | 64 | 39
14 | CC(C)CC(Nc1cnc2ccccc2c1)c1ccc(C(=O)NCCC(=O)O)cc1 (racemic) [Example 3, (+/−)3-{4-[3-methyl-1-(quinolin-3-ylamino)-butyl]-benzoylamino}-propionic acid] | 270 | 240
15 | CC1(C)CC(C(Nc2cnc3ccccc3c2)c2ccc(C(=O)NCCC(=O)O)cc2)C1 (stereo not shown) [Example 24, 3-(4-((3,3-dimethylcyclobutyl)(quinolin-3-ylamino)methyl)benzamido)propanoic acid] | 140 | 
16 | O=C(O)CCNC(=O)c1ccc(C(CCC(F)(F)F)Nc2cnc3ccccc3c2)cc1 (racemic) [Example 29, (+/−)-3-(4-(4,4,4-trifluoro-1-(quinolin-3-ylamino)butyl)benzamido)propanoic acid] | 930 | 930
17 | Cc1cc2ccccc2nc1NC(c1ccc(C(=O)NCCC(=O)O)cc1)C1CC(C)(C)C1 (single isomer, unassigned; isomer 2) [Example 33, 3-{4-[(3,3-dimethyl-cyclobutyl)-(3-methyl-quinolin-2-ylamino)-methyl]-benzoylamino}-propionic acid, isomer 2] | 1820 | 
18 | CC1(C)CC(C(Nc2cnc3cc(F)ccc3c2)c2ccc(C(=O)NCCC(=O)O)cc2)C1 (racemic) [Example 22, (+/−)3-(4-((3,3-dimethylcyclobutyl)(7-fluoroquinolin-3-ylamino)methyl)benzamido)propanoic acid] | 47 | 25
19 | Cc1cc(NC(CC(C)C)c2ccc(C(=O)NCCC(=O)O)cc2)nc2ccccc12 (racemic) [Example 10, (+/−)-3-{4-[3-methyl-1-(4-methyl-quinolin-2-ylamino)-butyl]-benzoylamino}-propionic acid] | 220 | 198
20 | Cc1cc2cc(F)ccc2nc1NC(c1ccc(C(=O)NCCC(=O)O)cc1)C1CC(C)(C)C1 (single isomer, unassigned; isomer 1) [Example 34, 3-{4-[(3,3-dimethyl-cyclobutyl)-(6-fluoro-3-methyl-quinolin-2-ylamino)-methyl]-benzoylamino}-propionic acid, isomer 1] | 1180 | 
21 | Cc1cc2ccccc2nc1NC(c1ccc(C(=O)NCCC(=O)O)cc1)C1CC(C)(C)C1 (single isomer, unassigned; isomer 1) [Example 32, 3-{4-[(3,3-dimethyl-cyclobutyl)-(3-methyl-quinolin-2-ylamino)-methyl]-benzoylamino}-propionic acid, isomer 1] | 23 | 53
22 | Cc1cc2ccccc2nc1NC(c1ccc(C(=O)NCCC(=O)O)cc1)C1CC(C)(C)C1 (racemic) [Example 19, (+/−)-3-{4-[(3,3-dimethyl-cyclobutyl)-(3-methyl-quinolin-2-ylamino)-methyl]-benzoylamino}-propionic acid] | 64 | 74
23 | CC1(C)CC(C(Nc2cnc3ccc(F)cc3c2)c2ccc(C(=O)NCCC(=O)O)cc2)C1 (racemic) [Example 23, (+/−)3-(4-((3,3-dimethylcyclobutyl)(6-fluoroquinolin-3-ylamino)methyl)benzamido)propanoic acid] | 63 | 50
24 | Cc1cc2ccccc2nc1NC(CC(C)C)c1ccc(C(=O)NCCC(=O)O)cc1 (racemic) [Example 11, (+/−)-3-{4-[3-methyl-1-(3-methyl-quinolin-2-ylamino)-butyl]-benzoylamino}-propionic acid] | 91 | 101
25 | Cc1ccc2ncc(NC(CC(C)C)c3ccc(C(=O)NCCC(=O)O)cc3)cc2c1 (stereo not drawn) [Example 27, N-(4-{3-methyl-1-[(6-methylquinolin-3-yl)amino]butyl}benzoyl)-beta-alanine] | 250 | 160
26 | CCC[C@H](Nc1nc2ccccc2cc1C)c1ccc(C(=O)NCCC(=O)O)cc1 [Example 2, (−)-3-(4-(1-((3-Methylquinolin-2-yl)amino)butyl)benzamido)propanoic acid] | 520 | 280
27 | CC(C)CC(Nc1cnc2ccccc2n1)c1ccc(C(=O)NCCC(=O)O)cc1 (racemic) [Example 7, (+/−)-3-{4-[3-methyl-1-(quinoxalin-2-ylamino)-butyl]-benzoylamino}-propionic acid] | 1000 | 
